Source: patent US20240368214A1, “POSITIVE NMDA-MODULATING COMPOUNDS AND METHODS OF USE THEREOF” (SAGE THERAPEUTICS, INC., priority 2021, published 2024)
Like-named read-outs stand apart in the source and are kept apart here.

Molecular target: T1, recombinant human GluN1/GluN2A receptor (Homo sapiens, UniProt Q05586+Q12879)
T1 construct: expressed in transfected cells; host or cells: HEK293, tetracycline-inducible expression
Assay: Whole-cell patch clamp of mammalian cells (Syncropatch 384i), NMDA modulation
Assay type: cell-based
Details: HEK293 cells, human GluN1/GluN2A, glutamate 1 μM / glycine 100 μM, -80 mV, peak amplitude increase; for EC50: read-out: EC50
Procedure, shortened: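 Modulation read as fold rise in peak current, (Icomp/Icontrol)−1, from 8 concentrations with ≥2 wells each, four-parameter fit. Compound pre-incubated 120 s then co-applied with 1 μM glutamate plus 100 μM glycine; tetracycline-inducible HEK293 GluN1/GluN2A cells clamped at −80 mV.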

T1 sequence (Q12879 23-1464, other chains not shown): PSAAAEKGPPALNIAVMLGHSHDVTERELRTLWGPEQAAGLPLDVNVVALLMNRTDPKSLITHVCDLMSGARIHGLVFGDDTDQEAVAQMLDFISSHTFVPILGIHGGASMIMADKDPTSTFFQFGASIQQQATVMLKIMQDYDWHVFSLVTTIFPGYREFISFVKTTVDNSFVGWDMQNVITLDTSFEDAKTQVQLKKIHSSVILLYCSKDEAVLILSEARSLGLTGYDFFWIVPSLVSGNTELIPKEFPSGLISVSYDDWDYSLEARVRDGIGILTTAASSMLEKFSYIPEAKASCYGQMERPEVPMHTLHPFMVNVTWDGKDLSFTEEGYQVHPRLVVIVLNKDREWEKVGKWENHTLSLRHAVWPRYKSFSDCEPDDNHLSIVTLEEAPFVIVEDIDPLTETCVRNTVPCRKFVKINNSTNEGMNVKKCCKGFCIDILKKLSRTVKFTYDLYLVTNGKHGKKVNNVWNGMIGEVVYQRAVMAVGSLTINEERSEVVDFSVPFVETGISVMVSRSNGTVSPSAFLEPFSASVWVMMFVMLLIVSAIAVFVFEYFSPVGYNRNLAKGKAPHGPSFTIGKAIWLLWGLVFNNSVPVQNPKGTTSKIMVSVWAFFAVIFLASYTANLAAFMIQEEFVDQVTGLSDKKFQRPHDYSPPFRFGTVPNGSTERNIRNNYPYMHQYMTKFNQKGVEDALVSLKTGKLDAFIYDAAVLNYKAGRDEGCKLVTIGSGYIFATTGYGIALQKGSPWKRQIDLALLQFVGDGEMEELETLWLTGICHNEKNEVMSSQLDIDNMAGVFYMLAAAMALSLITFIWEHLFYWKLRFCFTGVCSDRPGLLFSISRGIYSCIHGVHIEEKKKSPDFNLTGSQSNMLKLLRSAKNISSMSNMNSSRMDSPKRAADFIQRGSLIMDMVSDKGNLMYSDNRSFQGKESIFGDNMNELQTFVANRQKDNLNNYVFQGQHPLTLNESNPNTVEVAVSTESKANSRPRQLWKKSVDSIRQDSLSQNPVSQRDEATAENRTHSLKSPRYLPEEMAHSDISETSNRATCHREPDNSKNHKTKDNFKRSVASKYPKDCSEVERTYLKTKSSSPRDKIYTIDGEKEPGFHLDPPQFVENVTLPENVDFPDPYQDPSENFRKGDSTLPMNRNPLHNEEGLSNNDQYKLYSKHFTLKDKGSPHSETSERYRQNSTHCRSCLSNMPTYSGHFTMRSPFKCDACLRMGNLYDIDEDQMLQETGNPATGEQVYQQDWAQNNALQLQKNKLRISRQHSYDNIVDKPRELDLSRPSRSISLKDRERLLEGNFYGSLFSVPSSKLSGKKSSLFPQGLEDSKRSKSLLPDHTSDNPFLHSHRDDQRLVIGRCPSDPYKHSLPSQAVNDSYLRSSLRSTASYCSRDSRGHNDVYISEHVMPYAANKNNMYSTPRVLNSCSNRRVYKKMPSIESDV

| Emax (Table D-2) | EC50 (Table D-2) | Compound | Emax (Table E-2) | EC50 (Table E-2) |
| --- | --- | --- | --- | --- |
| 100 to 200% | 100 to 500 nM | CC[C@@]1(O)CC[C@@H]2CC[C@@H]3[C@H](CC[C@]4(C)[C@@H]([C@H](C)CC[C@](C)(O)C(F)(F)F)CC[C@@H]34)[C@@]2(C)CC1 [Compound D-3, (1R,3aS,3bR,5aS,8R,10aS,10bS,12aR)-8-ethyl-10a,12a-dimethyl-1-((2R,5S)-6,6,6-trifluoro-5-hydroxy-5-methylhexan-2-yl)octadecahydrocyclohepta[a]cyclopenta[f]naphthalen-8-ol] | – | – |
| – | > 1000 nM | CC[C@]1(O)CC[C@@H]2CC[C@@H]3[C@H](CC[C@]4(C)[C@@H]([C@H](C)CC[C@](C)(O)C(F)(F)F)CC[C@@H]34)[C@@]2(C)CC1 [Compound D-4, (1R,3aS,3bR,5aS,8S,10aS,10bS,12aR)-8-ethyl-10a,12a-dimethyl-1-((2R,5S)-6,6,6-trifluoro-5-hydroxy-5-methylhexan-2-yl)octadecahydrocyclohepta[a]cyclopenta[f]naphthalen-8-ol] | – | – |
| < 100% | 100 to 500 nM | CC[C@]1(O)CCC[C@@]2(C)[C@@H](CC[C@@H]3[C@@H]2CC[C@]2(C)[C@@H]([C@H](C)CC[C@@](C)(O)C(F)(F)F)CC[C@@H]32)C1 [Compound D-5, (1R,3aS,3bR,5aS,7S,10aS,10bS,12aR)-7-ethyl-10a,12a-dimethyl-1-((2R,5R)-6,6,6-trifluoro-5-hydroxy-5-methylhexan-2-yl)octadecahydrocyclohepta[a]cyclopenta[f]naphthalen-7-ol] | – | – |
| 100 to 200% | 1 to 100 nM | CC[C@@]1(O)CCC[C@@]2(C)[C@@H](CC[C@@H]3[C@@H]2CC[C@]2(C)[C@@H]([C@H](C)CC[C@@](C)(O)C(F)(F)F)CC[C@@H]32)C1 [Compound D-6, (1R,3aS,3bR,5aS,7R,10aS,10bS,12aR)-7-ethyl-10a,12a-dimethyl-1-((2R,5R)-6,6,6-trifluoro-5-hydroxy-5-methylhexan-2-yl)octadecahydrocyclohepta[a]cyclopenta[f]naphthalen-7-ol] | – | – |
| 100 to 200% | 1 to 100 nM | CC[C@]1(O)CCC[C@@]2(C)[C@@H](CC[C@@H]3[C@@H]2CC[C@]2(C)[C@@H]([C@H](C)CC[C@](C)(O)C(F)(F)F)CC[C@@H]32)C1 [Compound D-7, (1R,3aS,3bR,5aS,7S,10aS,10bS,12aR)-7-ethyl-10a,12a-dimethyl-1-((2R,5S)-6,6,6-trifluoro-5-hydroxy-5-methylhexan-2-yl)octadecahydrocyclohepta[a]cyclopenta[f]naphthalen-7-ol] | – | – |
| 100 to 200% | 100 to 500 nM | CC[C@]1(O)CCC[C@@]2(C)C(=CC[C@H]3[C@@H]4CC[C@H]([C@H](C)CCC(C)(C)O)[C@@]4(C)CC[C@@H]32)C1 [Compound D-9, (1R,3aS,3bS,7S,10aR,10bS,12aR)-7-ethyl-1-((R)-5-hydroxy-5-methylhexan-2-yl)-10a,12a-dimethyl-1,2,3,3a,3b,4,6,7,8,9,10,10a,10b,11,12,12a-hexadecahydrocyclohepta[a]cyclopenta[f]naphthalen-7-ol] | – | – |
| – | > 1000 nM | C[C@H](CC[C@](C)(O)C(F)(F)F)[C@H]1CC[C@H]2[C@@H]3CC=C4C[C@](C)(O)CCC[C@]4(C)[C@H]3CC[C@]12C [Compound D-14, (1R,3aS,3bS,7R,10aR,10bS,12aR)-7,10a,12a-trimethyl-1-((2R,5S)-6,6,6-trifluoro-5-hydroxy-5-methylhexan-2-yl)-1,2,3,3a,3b,4,6,7,8,9,10,10a, 10b, 11,12,12a-hexadecahydrocyclohepta[a]cyclopenta[f]naphthalen-7-ol] | – | – |
| < 100% | 100 to 500 nM | C[C@H](CC[C@](C)(O)C(F)(F)F)[C@H]1CC[C@H]2[C@@H]3CC=C4C[C@@](C)(O)CCC[C@]4(C)[C@H]3CC[C@]12C [Compound D-15, (1R,3aS,3bS,7S,10aR,10bS,12aR)-7,10a,12a-trimethyl-1-((2R,5S)-6,6,6-trifluoro-5-hydroxy-5-methylhexan-2-yl)-1,2,3,3a,3b,4,6,7,8,9,10,10a,10b,11,12,12a-hexadecahydrocyclohepta[a]cyclopenta[f]naphthalen-7-ol] | – | – |
| < 100% | > 1000 nM | CC[C@@]1(O)CCC[C@@]2(C)C(=CC[C@H]3[C@@H]4CC[C@H]([C@H](C)CC[C@](C)(O)C(F)(F)F)[C@@]4(C)CC[C@@H]32)C1 [Compound D-16, (1R,3aS,3bS,7R,10aR,10bS,12aR)-7-ethyl-10a,12a-dimethyl-1-((2R,5S)-6,6,6-trifluoro-5-hydroxy-5-methylhexan-2-yl)-1,2,3,3a,3b,4,6,7,8,9,10,10a,10b,11,12,12a-hexadecahydrocyclohepta[a]cyclopenta[f]naphthalen-7-ol] | – | – |
| 100 to 200% | 100 to 500 nM | CC[C@]1(O)CCC[C@@]2(C)C(=CC[C@H]3[C@@H]4CC[C@H]([C@H](C)CC[C@](C)(O)C(F)(F)F)[C@@]4(C)CC[C@@H]32)C1 [Compound D-17, (1R,3aS,3bS,7S,10aR,10bS,12aR)-7-ethyl-10a,12a-dimethyl-1-((2R,5S)-6,6,6-trifluoro-5-hydroxy-5-methylhexan-2-yl)-1,2,3,3a,3b,4,6,7,8,9,10,10a,10b,11,12,12a-hexadecahydrocyclohepta[a]cyclopenta[f]naphthalen-7-ol] | – | – |
| – | – | CC[C@]1(O)CC[C@]2(C)C3=CC[C@]4(C)[C@@H]([C@H](C)CCCC(C)(C)O)CC[C@H]4[C@@H]3CC[C@H]2C1 [Compound E-1, (3S,5S,8S,10S,13R,14S,17R)-3-ethyl-17-((R)-6-hydroxy-6-methylheptan-2-yl)-10,13-dimethyl-2,3,4,5,6,7,8,10,12,13,14,15,16,17-tetradecahydro-1H-cyclopenta[a]phenanthren-3-ol] | < 100% | 1 to 100 nM |
| – | – | CC[C@]1(O)CC[C@]2(C)C3=CC[C@]4(C)[C@@H]([C@H](C)CC[C@@](C)(O)C(F)(F)F)CC[C@H]4[C@@H]3CC[C@H]2C1 [Compound E-2, (3S,5S,8S,10S,13R,14S,17R)-3-ethyl-10,13-dimethyl-17-((2R,5R)-6,6,6-trifluoro-5-hydroxy-5-methylhexan-2-yl)-2,3,4,5,6,7,8,10,12,13,14,15,16,17-tetradecahydro-1H-cyclopenta[a]phenanthren-3-ol] | > 200% | 100 to 500 nM |
| – | – | CC[C@]1(O)CC[C@]2(C)C3=CC[C@]4(C)[C@@H]([C@H](C)CC[C@](C)(O)C(F)(F)F)CC[C@H]4[C@@H]3CC[C@H]2C1 [Compound E-3, (3S,5S,8S,10S,13R,14S,17R)-3-ethyl-10,13-dimethyl-17-((2R,5S)-6,6,6-trifluoro-5-hydroxy-5-methylhexan-2-yl)-2,3,4,5,6,7,8,10,12,13,14,15,16,17-tetradecahydro-1H-cyclopenta[a]phenanthren-3-ol] | > 200% | 1 to 100 nM |
| – | – | CC[C@]1(O)CC[C@]2(C)C3=CC[C@]4(C)[C@@H]([C@H](C)CC[C@@H](O)C(C)C)CC[C@H]4[C@@H]3CC[C@H]2C1 [Compound E-4, (3S,5S,8S,10S,13R,14S,17R)-3-ethyl-17-((2R,5R)-5-hydroxy-6-methylheptan-2-yl)-10,13-dimethyl-2,3,4,5,6,7,8,10,12,13,14,15,16,17-tetradecahydro-1H-cyclopenta[a]phenanthren-3-ol] | > 200% | 1 to 100 nM |
| – | – | CC[C@]1(O)CC[C@]2(C)C3=CC[C@]4(C)[C@@H]([C@H](C)CCC(C)(C)O)CC[C@H]4[C@@H]3CC[C@H]2C1 [Compound E-5, (3S,5S,8S,10S,13R,14S,17R)-3-ethyl-17-((R)-5-hydroxy-5-methylhexan-2-yl)-10,13-dimethyl-2,3,4,5,6,7,8,10,12,13,14,15,16,17-tetradecahydro-1H-cyclopenta[a]phenanthren-3-ol] | 100 to 200% | 1 to 100 nM |
| – | – | CC[C@]1(O)CC[C@]2(C)C3=CC[C@]4(C)[C@@H]([C@H](C)CCC5(O)CCCC5)CC[C@H]4[C@@H]3CC[C@H]2C1 [Compound E-6, (3S,5S,8S,10S,13R,14S,17R)-3-ethyl-17-((R)-4-(1-hydroxycyclopentyl)butan-2-yl)-10,13-dimethyl-2,3,4,5,6,7,8,10,12,13,14,15,16,17-tetradecahydro-1H-cyclopenta[a]phenanthren-3-ol] | > 200% | 1 to 100 nM |
| – | – | CC[C@]1(O)CC[C@]2(C)C3=CC[C@]4(C)[C@@H]([C@H](C)CCC5(O)CC5)CC[C@H]4[C@@H]3CC[C@H]2C1 [Compound E-7, (3S,5S,8S,10S,13R,14S,17R)-3-ethyl-17-((R)-4-(1-hydroxycyclopropyl)butan-2-yl)-10,13-dimethyl-2,3,4,5,6,7,8,10,12,13,14,15,16,17-tetradecahydro-1H-cyclopenta[a]phenanthren-3-ol] | > 200% | 100 to 500 nM |
| – | – | CC[C@]1(O)CC[C@]2(C)C3=CC[C@]4(C)[C@@H]([C@H](C)CC[C@@]5(O)CCOC5)CC[C@H]4[C@@H]3CC[C@H]2C1 [Compound E-8, (R)-3-((R)-3-((3S,5S,8S,10S,13R,14S,17R)-3-ethyl-3-hydroxy-10,13-dimethyl-2,3,4,5,6,7,8,10,12,13,14,15,16,17-tetradecahydro-1H-cyclopenta[a]phenanthren-17-yl)butyl)tetrahydrofuran-3-ol] | > 200% | 1 to 100 nM |
